Measurements reported in patent EP3797781A1, “USE OF EC-7072 AND SYNERGIC COMPOSITIONS THEREOF IN TREATMENT OF CHRONIC LYMPHOCYTIC LEUKEMIA” (priority 2019, dated 2021).

Test system: CD79A, CD79B and IgM
Assay: Surface expression of BCR complex components on leukemia cells by flow cytometry
Assay type: cell-based, human
Details: 200 nM, 8 hours; n = 5 - 6
Description: To determine immune cell populations, the following antibodies were employed: anti-CD19-APC, anti-CD3-APC, anti-CD4-PerCP and anti-CD8-APC (all from Immunostep); anti-CD3-FITC and anti-CD56-APC (Cytognos); and anti-CD3-PE/Cy7 and anti-CD5-APC/Cy7 (Biolegend). The subsets of immune cells were identified as follows: T cells were defined as CD3^+CD56^-, NK cells were identified as CD3^-CD56^+ and healthy B cells as CD19^+. Leukemia cells were defined as CD19^+, as the percentage of healthy B cells (CD19^+CD5^-) detected in PBMCs from patients with CLL was less than 2% (data not shown). Additionally, antibodies from Biolegend were used to detect surface expression of CD79A (clone: HM47), CD79B (clone: CB3-1) and IgM (clone: MHM-88). Cells were analyzed in a BD FACS Canto II flow cytometer with FACS Diva software (Beckton Dickinson).
The inhibition of the tonic BCR pathway by EC-7072 was evaluated by: • (i) incubating PBMCs from patients with CLL, following treatment with 200 nM EC-7072, for 8 hours. Surface expression of CD79A (Figure 7A), CD79B (Figure 7B) and IgM (Figure 7C) in leukemia cells (n = 5 - 6) was assessed by flow cytometry and the MFI was normalized to the control (DMSO) condition; • (ii) incubating isolated leukemia cells from patients with CLL (n = 10), following treatment with EC-7072 (200 nM), for 8 hours. […]

CO[C@@H]([C@@H]1Cc2cc3cc(O[C@H]4C[C@@H](O[C@H]5C[C@@H](O)[C@H](O)[C@@H](C)O5)[C@H](O)[C@@H](C)O4)c(C)c(O)c3c(O)c2C(=O)[C@H]1O[C@H]1C[C@@H](O[C@H]2C[C@@H](O[C@H]3C[C@](C)(O)[C@H](O)[C@@H](C)O3)[C@@H](O)[C@@H](C)O2)[C@H](O)[C@@H](C)O1)[C@@H](O)C(C)=O [EC-7072, mithramycin SK]
CD79A CLL cell surface expression: unchanged
CD79B and IgM CLL cell surface expression: significantly decreased
